# Laboratory results: patent publication US20260078130A1, “NAMPT MODULATORS, PREPARATIONS, AND USES THEREOF” (SIRONAX LTD., priority 2022, published 2026)
# Experiments:
# [1] = molecular target: T1, human enzyme NAMPT (full length) (Homo sapiens, UniProt P43490); assay: NMN fluorescence biochemical assay (stimulation of NMN synthesis by NAMPT); settings: for EC50: NMN synthesis by purified human NAMPT (100 nM), concentration giving half-maximal activation, read-out: Enzymatic EC50; for Enzymatic Emax: fold change of maximal activation compared to DMSO
# T1 construct: human enzyme NAMPT (full length)
# How it was run: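 Full-length human NAMPT (100 nM) was preincubated 15 min at 37 °C with compound in 50 mM Tris-HCl pH 7.5, 10 mM MgCl2, 2 mM DTT, then reacted 1 h at 37 °C with 50 μM NAM, 100 μM PRPP, 4 mM ATP (stated solution concentrations). NMN was derivatised with acetophenone/KOH then formic acid and read at Ex/Em 382/445 nm; EC50 and Emax (fold over DMSO) reported.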
# [2] = system: endogenous NAMPT in U2OS cells; assay: Cellular NAD+ modulation assay (NAD/NADH-Glo, U2OS cells); format: cell-based; settings: Homo sapiens, 24 hours incubation with compound; for maximal fold induction: read-out: Cellular Emax
# Description: Certain compounds described herein were also assayed for their ability to stimulate the endogenous NAMPT in a native cellular environment in a cellular NAD^+ modulation assay. U2OS cells were grown in McCoy's 5A medium with 10% fetal bovine serum, in a humidified incubator with an atmosphere of 95% air and 5% CO2 at 37° C. The assays were initiated by plating 30 μL of U2OS cells in a culture medium with 10% fetal bovine serum, at a density of 3000 cells per well in a Corning® 384-well White/Clear Bottom Polystyrene Microplate. The plates were incubated in 37T incubators for a period of 16 hours. Test compounds with a series of concentrations in DMSO were added to the plates in a volume of 150 nL using Echo Liquid handlers. The plates are then incubated for 24 hours. The medium was removed from the wells, then 10 μL PBS was added to each well. To each well of cells in 10 μL of PBS, 10 μL of base solution with 1% DTAB was added. The plate was briefly mixed on a plate shaker to ensure homogeneity and cell lysis (5 mins). 10p L of 0.4N HCl was added per well. The plate was coved, and all samples were incubated for 15 minutes at 60° C. Then the plate was equilibrated for 10 minutes at room temperature. 10 μL of 0.5M Trizma® base was added to each well of acid-treated cells to neutralize the acid. Finally, 30 μL of NAD/NADH-Glo™ Detection Reagent was added. The plate was gently shaken to mix the samples. The plate was incubated for 40 minutes at room temperature. Luminescence was recorded using a luminometer. The potency measurements for the test compounds were quantified and represented as EC50 (concentration of a compound that gives half-maximal activation) and Emax (fold change of a compound's maximal activation compared to DMSO).
# T1 sequence (P43490 whole entry): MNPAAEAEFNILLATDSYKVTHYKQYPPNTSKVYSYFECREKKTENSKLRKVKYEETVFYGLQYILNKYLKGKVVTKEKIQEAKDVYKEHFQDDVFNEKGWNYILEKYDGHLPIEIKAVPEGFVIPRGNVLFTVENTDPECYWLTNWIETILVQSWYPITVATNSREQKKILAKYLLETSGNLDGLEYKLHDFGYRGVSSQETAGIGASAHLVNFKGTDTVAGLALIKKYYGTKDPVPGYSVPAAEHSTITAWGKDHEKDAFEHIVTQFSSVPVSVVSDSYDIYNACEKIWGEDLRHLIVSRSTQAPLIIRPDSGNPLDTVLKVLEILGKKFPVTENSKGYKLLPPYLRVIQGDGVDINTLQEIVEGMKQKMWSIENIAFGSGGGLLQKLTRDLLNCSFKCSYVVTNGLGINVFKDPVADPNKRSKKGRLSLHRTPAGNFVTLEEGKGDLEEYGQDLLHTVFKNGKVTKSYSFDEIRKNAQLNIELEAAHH
SMILES,EC50 [1] [µM],Enzymatic Emax [1],EC50 [2] [µM],maximal fold induction [2]
"C[C@H]1c2ccccc2C(=O)N1Cc1ccc2[nH]c(=O)oc2c1 [Compound 56, (S)-6-((1-methyl-3-oxoisoindolin-2-yl)methyl)benzo[d]oxazol-2(3H)-one]",≥ 5,A (A>3),0.5 to 5,> 1.5
"O=C1c2ccccc2C(c2ccccc2)N1Cc1ccc2[nH]c(=O)oc2c1 (stereo not shown) [Compound 67, 6-((1-oxo-3-phenylisoindolin-2-yl)methyl)benzo[d]oxazol-2(3H)-one]",≥ 5,B (3≥B>2),5 to 50,1.2 to 1.5
"O=C1c2ccccc2C(C2CC2)N1Cc1ccc2[nH]c(=O)oc2c1 (stereo not shown) [Compound 72, 6-((1-cyclopropyl-3-oxoisoindolin-2-yl)methyl)benzo[d]oxazol-2(3H)-one]",≥ 5,A (A>3),0.5 to 5,> 1.5
"CC1c2cc(NC3CC4(CNC4)C3)ccc2C(=O)N1Cc1ccc2[nH]c(=O)oc2c1 (stereo not shown) [Compound 79, 6-((5-((2-azaspiro[3.3]heptan-6-yl)amino)-3-methyl-1-oxoisoindolin-2-yl)methyl)benzo[d]oxazol-2(3H)-one]",≥ 5,A (A>3),< 0.5,≤ 1.2
"CC1c2cc(NC3CCCC3)ccc2C(=O)N1Cc1ccc2[nH]c(=O)oc2c1 (stereo not shown) [Compound 81, 6-((5-(cyclopentylamino)-3-methyl-1-oxoisoindolin-2-yl)methyl)benzo[d]oxazol-2(3H)-one]",≥ 5,A (A>3),0.5 to 5,1.2 to 1.5
"CC(=O)Nc1ccc(CN2C(=O)c3ccccc3C2C)cc1 (stereo not shown) [Compound 82, N-(4-((1-methyl-3-oxoisoindolin-2-yl)methyl)phenyl)acetamide]",≥ 5,B (3≥B>2),0.5 to 5,1.2 to 1.5
"CC1c2ccccc2C(=O)N1Cc1cc(F)c2[nH]c(=O)oc2c1 (stereo not shown) [Compound 89, 4-fluoro-6-((1-methyl-3-oxoisoindolin-2-yl)methyl)benzo[d]oxazol-2(3H)-one]",≥ 5,B (3≥B>2),5 to 50,1.2 to 1.5
"CC1c2cc(NC3CCOCC3)ccc2C(=O)N1Cc1ccc2[nH]c(=O)oc2c1 (stereo not shown) [Compound 95, 6-((3-methyl-1-oxo-5-((tetrahydro-2H-pyran-4-yl)amino)isoindolin-2-yl)methyl)benzo[d]oxazol-2(3H)-one]",0.5 to 5,B (3≥B>2),5 to 50,> 1.5
"CC1c2cc(CN3CCCC3)ccc2C(=O)N1Cc1ccc2[nH]c(=O)oc2c1 (stereo not shown) [Compound 96, 6-((3-methyl-1-oxo-5-(pyrrolidin-1-ylmethyl)isoindolin-2-yl)methyl)benzo[d]oxazol-2(3H)-one]",≥ 5,A (A>3),0.5 to 5,> 1.5
"O=C1c2ccc(N3CCOCC3)cc2C(Cc2ccccc2)N1Cc1ccc2[nH]c(=O)oc2c1 (stereo not shown) [Compound 97, 6-((3-benzyl-5-morpholino-1-oxoisoindolin-2-yl)methyl)benzo[d]oxazol-2(3H)-one]",0.5 to 5,A (A>3),0.5 to 5,> 1.5
"CC(=O)Nc1ccc(CN2Cc3ccccc3C2=O)cc1 [Compound 104, N-(4-((1-oxoisoindolin-2-yl)methyl)phenyl)acetamide]",≥ 5,B (3≥B>2),5 to 50,> 1.5
"CNC(=O)Nc1ccc(CN2Cc3ccccc3C2=O)cc1 [Compound 105, 1-methyl-3-(4-((1-oxoisoindolin-2-yl)methyl)phenyl)urea]",≥ 5,B (3≥B>2),0.5 to 5,> 1.5
"O=C1c2ccccc2C(Cc2ccccc2)N1Cc1ccc2[nH]c(=O)oc2c1 (stereo not shown) [Compound 106, 6-((1-benzyl-3-oxoisoindolin-2-yl)methyl)benzo[d]oxazol-2(3H)-one]",0.5 to 5,A (A>3),0.5 to 5,1.2 to 1.5
"CC1c2cc(Cc3ccccc3)ccc2C(=O)N1Cc1ccc2[nH]c(=O)oc2c1 (stereo not shown) [Compound 113, 6-((5-benzyl-3-methyl-1-oxoisoindolin-2-yl)methyl)benzo[d]oxazol-2(3H)-one]",0.5 to 5,B (3≥B>2),0.5 to 5,1.2 to 1.5
"O=C1c2ccccc2C(CCc2ccccc2)N1Cc1ccc2[nH]c(=O)oc2c1 (stereo not shown) [Compound 114, 6-((1-oxo-3-phenethylisoindolin-2-yl)methyl)benzo[d]oxazol-2(3H)-one]",0.5 to 5,B (3≥B>2),5 to 50,> 1.5
"CC1c2cc(CN3CC4(CNC4)C3)ccc2C(=O)N1Cc1ccc2[nH]c(=O)oc2c1 (stereo not shown) [Compound 115, 6-((5-((2,6-diazaspiro[3.3]heptan-2-yl)methyl)-3-methyl-1-oxoisoindolin-2-yl)methyl) benzo[d]oxazol-2(3H)-one]",≥ 5,A (A>3),5 to 50,1.2 to 1.5
"O=C1c2ccc(C3CC3)cc2C(Cc2ccccc2)N1Cc1ccc2[nH]c(=O)oc2c1 (stereo not shown) [Compound 116, 6-((3-benzyl-5-cyclopropyl-1-oxoisoindolin-2-yl)methyl)benzo[d]oxazol-2(3H)-one]",< 0.5,B (3≥B>2),0.5 to 5,> 1.5
"O=C1c2ccc(CN3CCOCC3)cc2C(Cc2ccccc2)N1Cc1ccc2[nH]c(=O)oc2c1 (stereo not shown) [Compound 123, 6-((3-benzyl-5-(morpholinomethyl)-1-oxoisoindolin-2-yl)methyl)benzo[d]oxazol-2(3H)-one]",0.5 to 5,A (A>3),0.5 to 5,> 1.5
"Cc1ccccc1CC1c2ccccc2C(=O)N1Cc1ccc2[nH]c(=O)oc2c1 (stereo not shown) [Compound 124, 6-((1-(2-methylbenzyl)-3-oxoisoindolin-2-yl)methyl)benzo[d]oxazol-2(3H)-one]",< 0.5,A (A>3),0.5 to 5,> 1.5
"CC1c2cc(C3CC3)ccc2C(=O)N1Cc1ccc2[nH]c(=O)oc2c1 (stereo not shown) [Compound 125, 6-((5-cyclopropyl-3-methyl-1-oxoisoindolin-2-yl)methyl)benzo[d]oxazol-2(3H)-one]",≥ 5,A (A>3),0.5 to 5,> 1.5
"COC1CN(c2ccc3c(c2)C(C)N(Cc2ccc4[nH]c(=O)oc4c2)C3=O)C1 (stereo not shown) [Compound 128, 6-((5-(3-methoxyazetidin-1-yl)-3-methyl-1-oxoisoindolin-2-yl)methyl)benzo[d]oxazol-2(3H)-one]",≥ 5,B (3≥B>2),0.5 to 5,> 1.5
"O=C1c2ccccc2C(Cc2ccccn2)N1Cc1ccc2[nH]c(=O)oc2c1 (stereo not shown) [Compound 129, 6-((1-oxo-3-(pyridin-2-ylmethyl)isoindolin-2-yl)methyl)benzo[d]oxazol-2(3H)-one]",0.5 to 5,A (A>3),0.5 to 5,> 1.5
"O=C1c2ccccc2C(Cc2ccncc2)N1Cc1ccc2[nH]c(=O)oc2c1 (stereo not shown) [Compound 130, 6-((1-oxo-3-(pyridin-4-ylmethyl)isoindolin-2-yl)methyl)benzo[d]oxazol-2(3H)-one]",≥ 5,B (3≥B>2),0.5 to 5,> 1.5
"N#Cc1cccc(CC2c3ccccc3C(=O)N2Cc2ccc3[nH]c(=O)oc3c2)c1 (stereo not shown) [Compound 131, 3-((3-oxo-2-((2-oxo-2,3-dihydrobenzo[d]oxazol-6-yl)methyl)isoindolin-1-yl)methyl) benzonitrile]",0.5 to 5,A (A>3),0.5 to 5,> 1.5
"O=C1c2ccccc2C(Cc2ccccc2C(F)(F)F)N1Cc1ccc2[nH]c(=O)oc2c1 (stereo not shown) [Compound 134, 6-((1-oxo-3-(2-(trifluoromethyl)benzyl)isoindolin-2-yl)methyl)benzo[d]oxazol-2(3H)-one]",< 0.5,A (A>3),0.5 to 5,> 1.5
